Values joined by “and” are separate entries in the source; they are usually repeats but may differ in a detail not shown here. Equal entries are not always repeated. Records with an inconclusive call do not appear.
Tested on: mice, ADJ-PC-20 plasma cell tumor sc, T/C %
Test: NCI In Vivo Anticancer Drug Screen. Data for tumor model ADJ-PC-20 Plasma Cell (subcutaneous) in unknown mice
Conditions: endpoint: mean tumor weight, higher = larger tumour
Description: The antitumor activity of compounds was measured in mice bearing transplantable tumors. Survival or tumor size were measured and the results are expressed as the measurement made in the treated group (T) divided by the measurement made in the vehicle treated control group (C). The tumor model used in this assay is ADJ-PC-20 Plasma Cell (subcutaneous) in unknown mice

[1] = dose: 0.12 mg/kg/injection, schedule: Q01DX010 (ip), vehicle: carboxymethylcellulose (CMC)
[2] = dose: 0.25 mg/kg/injection, schedule: Q01DX010 (ip), vehicle: carboxymethylcellulose (CMC)
[3] = dose: 0.5 mg/kg/injection, schedule: Q01DX010 (ip), vehicle: carboxymethylcellulose (CMC)
[4] = dose: 50.0 mg/kg/injection, schedule: Q01DX010 (ip), vehicle: carboxymethylcellulose (CMC)
[5] = dose: 100.0 mg/kg/injection, schedule: Q01DX010 (ip), vehicle: carboxymethylcellulose (CMC)
[6] = dose: 200.0 mg/kg/injection, schedule: Q01DX010 (ip), vehicle: carboxymethylcellulose (CMC)

## Nc1nc(=S)c2[nH]cnc2[nH]1
[1]
  T/C: 112 % of control
[2]
  T/C: 39 % of control and 62 % of control
[3]
  T/C: 9 % of control
dose: 62.0 micrograms/kg/injection, schedule: Q01DX010 (ip), vehicle: carboxymethylcellulose (CMC)
  T/C: 52 % of control
dose: 125.0 micrograms/kg/injection, schedule: Q01DX010 (ip), vehicle: carboxymethylcellulose (CMC)
  T/C: 23 % of control
dose: 250.0 micrograms/kg/injection, schedule: Q01DX010 (ip), vehicle: carboxymethylcellulose (CMC)
  T/C: 14 % of control

## C[C@@H]1C[C@H]2CC[C@H](O2)[C@H](C)C(=O)O[C@@H](C)C[C@@H]2CC[C@@H](O2)[C@@H](C)C(=O)O[C@H](C)C[C@H]2CC[C@H](O2)[C@H](C)C(=O)O[C@@H](C)C[C@@H]2CC[C@@H](O2)[C@@H](C)C(=O)O1
[4]
  T/C: 110 % of control
[5]
  T/C: 120 % of control
[6]
  T/C: 99 % of control

## O=c1[nH]c(=O)n(C2CC(O)C(CO)O2)cc1I (stereo unspecified)
dose: 31.25 mg/kg/injection, schedule: Q01DX010 (ip), vehicle: carboxymethylcellulose (CMC)
  T/C: 49 % of control
dose: 62.5 mg/kg/injection, schedule: Q01DX010 (ip), vehicle: carboxymethylcellulose (CMC)
  T/C: 77 % of control
dose: 125.0 mg/kg/injection, schedule: Q01DX010 (ip), vehicle: carboxymethylcellulose (CMC)
  T/C: 32 % of control
dose: 250.0 mg/kg/injection, schedule: Q01DX010 (ip), vehicle: carboxymethylcellulose (CMC)
  T/C: 11 % of control

## CCOC(N)=O
dose: 250.0 mg/kg/injection, schedule: Q01DX010 (ip), vehicle: saline
  T/C: 80 % of control and 95 % of control

## O=C(Nc1ccc(C2=NCCCN2)cc1)c1ccc(NC(=O)c2ccc(C3=NCCCN3)cc2)cc1
[1]
  T/C: 99 % of control
[2]
  T/C: 87 % of control
[3]
  T/C: 109 % of control
dose: 1.0 mg/kg/injection, schedule: Q01DX010 (ip), vehicle: carboxymethylcellulose (CMC)
  T/C: 84 % of control
dose: 2.0 mg/kg/injection, schedule: Q01DX010 (ip), vehicle: carboxymethylcellulose (CMC)
  T/C: 94 % of control
dose: 4.0 mg/kg/injection, schedule: Q01DX010 (ip), vehicle: carboxymethylcellulose (CMC)
  T/C: 83 % of control
dose: 8.0 mg/kg/injection, schedule: Q01DX010 (ip), vehicle: carboxymethylcellulose (CMC)
  T/C: 56 % of control

## O=C(Nc1ccc(C2=NCCN2)cc1)c1ccc(C(=O)Nc2ccc(C3=NCCN3)cc2)cc1
dose: 25.0 mg/kg/injection, schedule: Q01DX010 (ip), vehicle: carboxymethylcellulose (CMC)
  T/C: 73 % of control
[4]
  T/C: 78 % of control
[5]
  T/C: 60 % of control
[6]
  T/C: 71 % of control

## C=CC(CN1CC1)OC(C)=O (stereo unspecified)
dose: 3.75 mg/kg/injection, schedule: Q01DX010 (ip), vehicle: carboxymethylcellulose (CMC)
  T/C: 72 % of control
dose: 7.5 mg/kg/injection, schedule: Q01DX010 (ip), vehicle: carboxymethylcellulose (CMC)
  T/C: 40 % of control

## CC[C@]1(O)C[C@H]2CN(CCc3c([nH]c4ccccc34)[C@@](C(=O)OC)(c3cc4c(cc3OC)N(C=O)[C@H]3[C@@](O)(C(=O)OC)[C@H](OC(C)=O)[C@]5(CC)C=CCN6CC[C@]43[C@@H]65)C2)C1
dose: 0.12 mg/kg/injection, schedule: Q01DX010 (ip), vehicle: water
  T/C: 109 % of control
dose: 0.5 mg/kg/injection, schedule: Q01DX010 (ip), vehicle: water
  T/C: 105 % of control
dose: 31.0 micrograms/kg/injection, schedule: Q01DX010 (ip), vehicle: water
  T/C: 97 % of control
dose: 62.0 micrograms/kg/injection, schedule: Q01DX010 (ip), vehicle: water
  T/C: 95 % of control
dose: 125.0 micrograms/kg/injection, schedule: Q01DX010 (ip), vehicle: water
  T/C: 90 % of control
dose: 250.0 micrograms/kg/injection, schedule: Q01DX010 (ip), vehicle: water
  T/C: 63 % of control

## COC12C(COC(N)=O)C3=C(C(=O)C(C)=C(N)C3=O)N1CC1C2N1C (stereo unspecified)
dose: 0.63 mg/kg/injection, schedule: Q01DX010 (ip), vehicle: carboxymethylcellulose (CMC)
  T/C: 81 % of control
dose: 1.25 mg/kg/injection, schedule: Q01DX010 (ip), vehicle: carboxymethylcellulose (CMC)
  T/C: 43 % of control
dose: 2.5 mg/kg/injection, schedule: Q01DX010 (ip), vehicle: carboxymethylcellulose (CMC)
  T/C: 13 % of control

## NC(=O)N(CCCl)N=O
dose: 1.75 mg/kg/injection, schedule: Q01DX010 (ip), vehicle: carboxymethylcellulose (CMC)
  T/C: 93 % of control
dose: 3.5 mg/kg/injection, schedule: Q01DX010 (ip), vehicle: carboxymethylcellulose (CMC)
  T/C: 105 % of control
dose: 7.0 mg/kg/injection, schedule: Q01DX010 (ip), vehicle: carboxymethylcellulose (CMC)
  T/C: 102 % of control

## CC[C@H](c1ccc(O)cc1)[C@@H](CC)c1ccc(O)cc1
dose: 31.25 mg/kg/injection, schedule: Q01DX010 (sc), vehicle: steriod suspending solution
  T/C: 185 % of control
dose: 62.5 mg/kg/injection, schedule: Q01DX010 (sc), vehicle: steriod suspending solution
  T/C: 180 % of control
